According to ChEMBL document CHEMBL5230104, “Systemic review on B-RafV600E mutation as potential therapeutic target for the treatment of cancer” (Eur J Med Chem, 2020):

Key:
[1] = target: Serine/threonine-protein kinase B-raf (Mus musculus, UniProt P28028); test: Inhibition of full length GST tagged mouse wild type B-Raf preincubated for 1 hr and measured after 25 mins in presence of ATP
[2] = Antiproliferative activity against human WM1361 cells incubated for 24 hrs by MTT assay; format: functional, cell-based; conditions: WM1361, 24 h
[3] = tested on: A-375; test: Antiproliferative activity against human A-375 cells incubated for 24 hrs by MTT assay; format: functional, cell-based; conditions: A-375, 24 h
[4] = Inhibition of full length GST tagged mouse B-Raf V600E mutant preincubated for 1 hr and measured after 25 mins in presence of ATP
[5] = target: T1, Serine/threonine-protein kinase B-raf (Homo sapiens, UniProt P15056, V600E); test: Inhibition of B-Raf V600E mutant (unknown origin)
Target sequence in this assay (P15056 whole entry V600E): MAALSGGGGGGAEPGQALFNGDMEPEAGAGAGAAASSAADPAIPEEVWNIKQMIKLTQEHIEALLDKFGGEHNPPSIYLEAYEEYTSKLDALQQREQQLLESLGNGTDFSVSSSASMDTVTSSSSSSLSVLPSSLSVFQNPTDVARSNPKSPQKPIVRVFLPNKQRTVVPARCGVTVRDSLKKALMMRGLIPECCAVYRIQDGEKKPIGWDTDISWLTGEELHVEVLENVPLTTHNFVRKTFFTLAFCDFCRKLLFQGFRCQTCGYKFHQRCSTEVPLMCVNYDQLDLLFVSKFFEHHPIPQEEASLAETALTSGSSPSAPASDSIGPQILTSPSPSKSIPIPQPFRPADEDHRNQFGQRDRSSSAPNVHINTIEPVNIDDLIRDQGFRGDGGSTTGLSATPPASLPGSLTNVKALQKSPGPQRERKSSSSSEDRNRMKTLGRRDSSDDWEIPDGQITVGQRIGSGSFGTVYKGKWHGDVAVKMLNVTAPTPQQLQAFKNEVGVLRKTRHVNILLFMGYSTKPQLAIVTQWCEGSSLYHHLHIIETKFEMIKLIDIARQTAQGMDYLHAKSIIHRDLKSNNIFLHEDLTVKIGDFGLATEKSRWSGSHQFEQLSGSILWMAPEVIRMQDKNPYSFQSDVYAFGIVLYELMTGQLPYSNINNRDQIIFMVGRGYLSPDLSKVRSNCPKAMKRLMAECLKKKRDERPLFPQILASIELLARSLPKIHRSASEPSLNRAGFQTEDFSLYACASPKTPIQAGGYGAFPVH

[6] = target: T2, Serine/threonine-protein kinase B-raf (Homo sapiens, UniProt P15056); test: Inhibition of wild type B-Raf (unknown origin)
[7] = Antiproliferative activity against human WM1361 cells assessed as cell growth inhibition; format: functional, cell-based
[8] = tested on: A-375; test: Antiproliferative activity against human A-375 cells assessed as cell growth inhibition; format: functional, cell-based
[9] = tested on: A549; test: Antiproliferative activity against human A549 cells assessed as cell growth inhibition; format: functional, cell-based
[10] = tested on: HMV-2 cell line; test: Antiproliferative activity against human HMV-2 cells harbouring B-Raf G469V mutant by SRB assay; format: functional, cell-based
[11] = tested on: CHL-1; test: Antiproliferative activity against human CHL-1 cells harbouring wild type B-Raf by SRB assay; format: functional, cell-based
[12] = tested on: Malme-3M; test: Antiproliferative activity against human Malme-3M cells harbouring B-Raf V600E mutant by SRB assay; format: functional, cell-based
[13] = tested on: A-375; test: Antitumor activity against human A-375 cell xenografted in F344 nude rat model assessed as tumor growth inhibition by measuring T/C ratio at 9.7 mg/kg relative to control; format: functional
[14] = tested on: HT-144; test: Antiproliferative activity against human HT-144 cells harbouring B-Raf V600E mutant by SRB assay; format: functional, cell-based
[15] = tested on: SK-MEL-2; test: Antiproliferative activity against human SK-MEL-2 cells harbouring wild type B-Raf by SRB assay; format: functional, cell-based
[16] = tested on: A-375; test: Antitumor activity against human A-375 cell xenografted in F344 nude rat model assessed as tumor growth inhibition by measuring T/C ratio at 24.1 mg/kg relative to control; format: functional
[17] = tested on: HMCB cell line; test: Antiproliferative activity against human HMCB cells harbouring wild type B-Raf by SRB assay; format: functional, cell-based
[18] = tested on: A-375; test: Antiproliferative activity against human A-375 cells harbouring B-Raf V600E mutant by SRB assay; format: functional, cell-based
[19] = In vivo inhibition of B-Raf in human A-375 cells xenografted in mouse model assessed as tumor growth inhibition; format: functional, cell-based
[20] = tested on: A-375; test: Antiproliferative activity against human A-375 cells assessed as inhibition of cell viability; format: functional, cell-based
[21] = tested on: A-375; test: Antitumor activity against human A-375 cells xenografted in mouse model assessed as tumor growth inhibition at 50 mg/kg, iv relative to control; format: functional; parameters: scale not given: the % may be the effect or the level left
[22] = tested on: SK-MEL-28; test: Antiproliferative activity against human SK-MEL-28 cells assessed as inhibition of cell viability; format: functional, cell-based
[23] = tested on: Malme-3M; test: Antiproliferative activity against human Malme-3M cells assessed as inhibition of cell viability; format: functional, cell-based
[24] = tested on: NCI-H460; test: Antiproliferative activity against human NCI-H460 cells assessed as reduction in cell viability; format: functional, cell-based
[25] = tested on: U-251; test: Antiproliferative activity against human U-251 cells assessed as reduction in cell viability; format: functional, cell-based
[26] = tested on: SK-MEL-5; test: Antiproliferative activity against human SK-MEL-5 cells assessed as reduction in cell viability; format: functional, cell-based
[27] = target: T2, Serine/threonine-protein kinase B-raf; test: Inhibition of wild type B-Raf (unknown origin) by radiometric protein kinase-reaction biology assay
[28] = tested on: IGROV-1; test: Antiproliferative activity against human IGROV-1 cells assessed as reduction in cell viability; format: functional, cell-based
[29] = tested on: HT-29; test: Antiproliferative activity against human HT-29 cells assessed as reduction in cell viability; format: functional, cell-based
[30] = target: T1, Serine/threonine-protein kinase B-raf; test: Inhibition of B-Raf V600E mutant (unknown origin) by radiometric protein kinase-reaction biology assay
Target sequence in this assay (P15056 2-766 V600E limits assumed): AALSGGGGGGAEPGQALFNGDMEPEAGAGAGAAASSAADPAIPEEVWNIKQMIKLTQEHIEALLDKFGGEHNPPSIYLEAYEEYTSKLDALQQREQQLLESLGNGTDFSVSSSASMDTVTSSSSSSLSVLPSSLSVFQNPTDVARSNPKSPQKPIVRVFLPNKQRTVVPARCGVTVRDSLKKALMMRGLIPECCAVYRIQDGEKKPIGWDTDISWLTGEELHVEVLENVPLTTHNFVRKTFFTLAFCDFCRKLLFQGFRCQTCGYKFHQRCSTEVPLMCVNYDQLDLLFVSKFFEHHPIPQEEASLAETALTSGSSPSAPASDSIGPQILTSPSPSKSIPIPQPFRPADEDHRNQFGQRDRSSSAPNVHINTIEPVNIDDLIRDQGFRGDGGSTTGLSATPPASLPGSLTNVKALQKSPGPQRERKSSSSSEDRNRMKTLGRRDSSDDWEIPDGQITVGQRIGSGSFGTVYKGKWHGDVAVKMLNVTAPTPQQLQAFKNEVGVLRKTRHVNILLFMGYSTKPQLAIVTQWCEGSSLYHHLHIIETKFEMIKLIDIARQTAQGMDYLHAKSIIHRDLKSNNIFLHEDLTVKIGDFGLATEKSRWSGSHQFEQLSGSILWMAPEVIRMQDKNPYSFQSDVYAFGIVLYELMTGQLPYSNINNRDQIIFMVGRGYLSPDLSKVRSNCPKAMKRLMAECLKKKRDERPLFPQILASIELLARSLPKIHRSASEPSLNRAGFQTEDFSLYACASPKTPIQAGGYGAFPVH

[31] = tested on: PC-3; test: Antiproliferative activity against human PC-3 cells assessed as reduction in cell viability; format: functional, cell-based
[32] = tested on: UO-31; test: Antiproliferative activity against human UO-31 cells assessed as reduction in cell viability; format: functional, cell-based
[33] = tested on: T47D; test: Antiproliferative activity against human T47D cells assessed as reduction in cell viability; format: functional, cell-based
[34] = tested on: SK-MEL-28; test: Antiproliferative activity against human SK-MEL-28 cells assessed as reduction in cell viability; format: functional, cell-based
[35] = tested on: K562; test: Antiproliferative activity against human K562 cells assessed as reduction in cell viability; format: functional, cell-based
[36] = tested on: A-375; test: Antiproliferative activity against human A-375 cells assessed as reduction in cell viability; format: functional, cell-based
[37] = target: T2, Serine/threonine-protein kinase B-raf; test: Inhibition of B-Raf (unknown origin)
[38] = tested on: HT-29; test: Antiproliferative activity against human HT-29 cells assessed as cell growth proliferation; format: functional, cell-based
[39] = tested on: M14; test: Antiproliferative activity against human M14 cells; format: functional, cell-based
[40] = tested on: Melanoma cell line; test: Antiproliferative activity against human Melanoma cell line; format: functional, cell-based
[41] = tested on: SK-OV-3; test: Antitumor activity against human SK-OV-3 cells xenografted in mouse model assessed as reduction in tumor growth measured after 40 days relative to control; format: functional; parameters: scale not given: the % may be the effect or the level left; conditions: time 40 day
[42] = tested on: SK-OV-3; test: Antiproliferative activity against human SK-OV-3 cells; format: functional, cell-based
[43] = tested on: UO-31; test: Anticancer activity against human UO-31 cells assessed as cell growth proliferation; format: functional, cell-based
[44] = tested on: OVCAR-3; test: Anticancer activity against human OVCAR-3 cells assessed as cell growth proliferation; format: functional, cell-based
[45] = tested on: SR; test: Anticancer activity against human SR cells assessed as cell growth proliferation; format: functional, cell-based
[46] = tested on: SNB-75; test: Anticancer activity against human SNB-75 cells assessed as cell growth proliferation; format: functional, cell-based
[47] = tested on: SW-620; test: Anticancer activity against human SW620 cells assessed as cell growth proliferation; format: functional, cell-based
[48] = tested on: PC-3; test: Anticancer activity against human PC-3 cells assessed as cell growth proliferation; format: functional, cell-based
[49] = tested on: NCI-H522; test: Anticancer activity against human NCI-H522 cells assessed as cell growth proliferation; format: functional, cell-based
[50] = tested on: A-375; test: Anticancer activity against human A-375 cells assessed as cell growth proliferation; format: functional, cell-based
[51] = tested on: SK-MEL-5; test: Anticancer activity against human SK-MEL-5 cells assessed as cell growth proliferation; format: functional, cell-based
[52] = tested on: MDA-MB-468; test: Anticancer activity against human MDA-MB-468 cells assessed as cell growth proliferation; format: functional, cell-based
[53] = tested on: Serine/threonine-protein kinase B-raf (Homo sapiens), P15056 [V600E]; test: Inhibition of B-Raf V600E mutant (unknown origin) at 10 uM relative to control
[54] = tested on: HT-29; test: Anticancer activity against human HT-29 cells assessed as cell growth proliferation; format: functional, cell-based
[55] = tested on: HOP-92; test: Anticancer activity against human HOP-92 cells assessed as cell growth proliferation; format: functional, cell-based
[56] = tested on: COLO 205; test: Antitumor activity against human COLO 205 cells xenografted in mouse model assessed as tumor growth inhibition at 30 mg/kg/day relative to control; format: functional; parameters: scale not given: the % may be the effect or the level left
[57] = tested on: COLO 205; test: Antiproliferative activity against human COLO 205 cells by CellTiter-Glo Luminescent Cell Viability Assay; format: functional, cell-based
[58] = tested on: WM 266-4; test: Antiproliferative activity against human WM266-4 cells by CellTiter-Glo Luminescent Cell Viability Assay; format: functional, cell-based
[59] = tested on: COLO-829; test: Antiproliferative activity against human COLO-829 cells by CellTiter-Glo Luminescent Cell Viability Assay; format: functional, cell-based
[60] = tested on: A-375; test: Antiproliferative activity against human A-375 cells by CellTiter-Glo Luminescent Cell Viability Assay; format: functional, cell-based
[61] = tested on: HCT-116; test: Anticancer activity against human HCT-116 cells; format: functional, cell-based
[62] = tested on: SK-MEL-2; test: Anticancer activity against human SK-MEL-2 cells; format: functional, cell-based
[63] = tested on: K562; test: Anticancer activity against human K562 cells; format: functional, cell-based
[64] = tested on: MV4-11; test: Anticancer activity against human MV4-11 cells; format: functional, cell-based
[65] = tested on: A549; test: Anticancer activity against human A549 cells; format: functional, cell-based

T2 sequence (P15056 whole entry): as the sequence (P15056 whole entry V600E) above, with E600V counted along it
Chain of Serine/threonine-protein kinase B-raf (Mus musculus, UniProt P28028) (P28028 whole entry): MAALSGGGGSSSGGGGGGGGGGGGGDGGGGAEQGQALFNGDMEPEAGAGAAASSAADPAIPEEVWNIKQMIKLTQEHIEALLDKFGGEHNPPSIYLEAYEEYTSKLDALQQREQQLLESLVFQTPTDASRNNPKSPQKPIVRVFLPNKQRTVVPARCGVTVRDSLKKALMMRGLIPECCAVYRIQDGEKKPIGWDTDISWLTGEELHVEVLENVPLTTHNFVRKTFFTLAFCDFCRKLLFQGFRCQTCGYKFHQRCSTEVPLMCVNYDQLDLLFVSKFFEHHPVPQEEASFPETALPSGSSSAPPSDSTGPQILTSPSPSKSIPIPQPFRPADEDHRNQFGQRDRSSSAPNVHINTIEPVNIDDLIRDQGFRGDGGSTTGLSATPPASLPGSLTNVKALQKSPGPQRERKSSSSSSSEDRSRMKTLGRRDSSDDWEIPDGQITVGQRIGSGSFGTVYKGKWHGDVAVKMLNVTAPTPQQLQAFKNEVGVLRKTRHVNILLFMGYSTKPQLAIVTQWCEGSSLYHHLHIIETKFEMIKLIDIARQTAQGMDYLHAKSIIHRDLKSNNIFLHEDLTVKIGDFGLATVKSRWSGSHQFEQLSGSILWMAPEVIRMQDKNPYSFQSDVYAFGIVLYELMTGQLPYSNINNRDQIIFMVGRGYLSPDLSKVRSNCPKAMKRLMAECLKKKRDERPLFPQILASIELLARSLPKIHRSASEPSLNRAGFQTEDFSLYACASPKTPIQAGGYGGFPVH
Chain of Serine/threonine-protein kinase B-raf (Homo sapiens), P15056 [V600E] (P15056 whole entry V600E): as the sequence (P15056 whole entry V600E) above

Cc1ccc(-n2cc(NC(=O)c3c[nH]c4ccccc34)cn2)cc1
IC50 [1]: 920 nM
IC50 [2]: 10000 nM
IC50 [3]: 930 nM
IC50 [4]: 100 nM

COc1ccc(-n2cc(NC(=O)c3cccc(NC(=O)Nc4ccc(Cl)c(C(F)(F)F)c4)c3)cn2)cc1
IC50 [5]: 35 nM
IC50 [6]: 220 nM
IC50 [7]: 7120 nM
IC50 [8]: 390 nM

Cc1ccc(C2=NN=C(NC(=S)Nc3ccc(Cl)cc3)SC2)cc1
IC50 [9]: 320 nM
IC50 [5]: 180 nM

N#Cc1c(Oc2ccc(F)c(NC(=O)Cc3cccc(C(F)(F)F)c3)c2)ccc2nc(NC(=O)C3CC3)sc12
IC50 [10]: 200 nM
IC50 [11]: 2.07 nM
IC50 [12]: 50 nM
T/C [13]: 2.1%
IC50 [14]: 110 nM
IC50 [15]: 60 nM
T/C [16]: 12.1%
IC50 [17]: 350 nM
IC50 [18]: 160 nM

OCCn1cc(-c2ccc3c(c2)CC/C3=N/O)c(-c2ccncc2)n1
IC50 [19]: 59 nM

CN(C)CCOc1ccc(-c2n/c(=c3\ccc4c(c3)CCC=4N=O)c(=C3C=CNC=C3)[nH]2)cc1
IC50 [20]: 370 nM
Activity [21]: 80%
IC50 [22]: 120 nM
IC50 [23]: 150 nM

O=S(=O)(NCCCNc1nccc(-c2c(-c3cccc(F)c3)nc3occn23)n1)c1ccccc1
IC50 [24]: 18500 nM
IC50 [25]: 7380 nM
IC50 [26]: 28400 nM
IC50 [27]: 172 nM
IC50 [28]: 40200 nM
IC50 [29]: 51800 nM
IC50 [30]: 92 nM
IC50 [31]: 38900 nM
IC50 [32]: 39800 nM
IC50 [33]: 53600 nM
IC50 [34]: 11200 nM
IC50 [35]: 56300 nM
IC50 [36]: 9810 nM

COc1ccc(-c2n[nH]c(/N=C/c3ccc(O)c(OC)c3)n2)cc1
IC50 [37]: 700 nM
IC50 [38]: 1300 nM

Cc1ccc(NC(=O)c2cccc(C(C)(C)C#N)c2)cc1Nc1ccc2ncn(C)c(=O)c2c1
IC50 [39]: 100 nM
IC50 [40]: 10000 nM

COC[C@@H]1C[C@H]2[C@@H]3CCc4cc(O)ccc4[C@H]3CC[C@]2(C)C1NN (stereo partly specified)
Activity [41]: 93.61%
IC50 [5]: 41 nM
IC50 [6]: 4320 nM
IC50 [42]: 4230 nM

CCN1CCN(CCC(=O)Nc2cccc(-n3cc(-c4ccncc4)c(-c4ccc(Cl)c(OC)c4)n3)c2)CC1
IC50 [43]: 920 nM
IC50 [44]: 350 nM
IC50 [45]: 430 nM
IC50 [46]: 390 nM
IC50 [47]: 340 nM
IC50 [48]: 450 nM
IC50 [49]: 270 nM
IC50 [50]: 820 nM
IC50 [51]: 510 nM
IC50 [52]: 270 nM
inhibition [53]: 100%
IC50 [54]: 380 nM
IC50 [55]: 780 nM

CCCS(=O)(=O)Nc1ccc(F)c(C(=O)c2c[nH]c3ncc(Cl)cc23)c1F [PLX-4720]
Activity [56]: 90%
IC50 [57]: 310 nM
IC50 [58]: 1500 nM
IC50 [59]: 1700 nM
IC50 [60]: 500 nM

O=C(Nc1ccc(Oc2ccc(C(=O)c3ncc[nH]3)cc2)cc1)Nc1ccc(Cl)c(C(F)(F)F)c1
IC50 [61]: 10900 nM
IC50 [62]: 5400 nM
IC50 [63]: 9130 nM
IC50 [5]: 86 nM
IC50 [6]: 134 nM
IC50 [64]: 380 nM
IC50 [65]: 9110 nM
